Test results from US12649733B2, “3,6-diamino-pyridazin-3-yl derivatives, pharmaceutical compositions containing them and their uses as pro-apoptotic agents” (LES LABORATOIRES SERVIER, priority 2019, dated 2026).

How the values were obtained:
H146 cells = experiment: H146 cell viability, MTT assay; assay type: cell-based; conditions: Homo sapiens, NCI-H146, 48 h, 48 h exposure
How it was run: (§1)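 Cells grown in RPMI 1640 with 10% heat-inactivated FBS at 37° C, 5% CO2, exposed 48 h to nine 3.16-fold serial compound dilutions in triplicate. MTT added for 4 h, SDS/HCl solubilisation overnight, absorbance at 540 nm; IC50 by four-parameter fit.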

BCLXL [1] = target: T1, BCLXL (Homo sapiens, UniProt Q07817, V10N/V9A); experiment: AlphaLISA assay (BIM peptide displacement); assay type: binding; conditions: 20 pM protein, 1 nM peptide
T1 sequence (Q07817 with tags, fused parts or gaps V9A/V10N): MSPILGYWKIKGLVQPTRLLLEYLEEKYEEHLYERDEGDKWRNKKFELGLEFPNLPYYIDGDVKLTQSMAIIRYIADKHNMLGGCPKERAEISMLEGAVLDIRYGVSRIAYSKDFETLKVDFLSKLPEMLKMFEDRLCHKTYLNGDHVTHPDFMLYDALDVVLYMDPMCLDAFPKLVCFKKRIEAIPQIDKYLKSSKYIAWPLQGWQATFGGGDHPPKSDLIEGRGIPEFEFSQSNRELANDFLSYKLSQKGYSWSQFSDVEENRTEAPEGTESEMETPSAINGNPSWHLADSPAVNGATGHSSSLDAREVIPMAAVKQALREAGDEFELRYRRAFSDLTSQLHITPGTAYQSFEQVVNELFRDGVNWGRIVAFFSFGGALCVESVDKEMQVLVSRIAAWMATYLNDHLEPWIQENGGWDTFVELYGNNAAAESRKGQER
Experimental: AlphaLISA assay measures an increase in alpha signal upon binding biotinylated GST(1-218)-(FACTOR_XA)-hs ? (2-209)(SEQ ID:02—GST UniProtKB® primary accession number P08515 and BCLXL UniProtKB® primary accession number Q07817-1) coupled to a Streptavidin labeled Alpha donor bead to N-terminally labeled peptide derived from BIM (Fluorescein-betaAla-Ahx-SEQID:05, wherein SEQ ID:05 is […]) coupled to an Anti-FTIC AlphaLISA acceptor bead.
GST(1-218)(FACTOR_XA)-hs ? (2-209) was biotinylated in 50 mM phosphate buffer using a 20 fold excess of EZ Link NHS-LC-Biotin (thermoFisher catalogue number 21336) overnight at 4° C.
The addition of a compound which binds competitively to the same site as the peptide will result in an decrease in the Alpha signal of the available donor bead-protein-peptide-acceptor bead complex due to displacement of the peptide.
An 11-point serial dilution of each compound was prepared in DMSO, the final buffer conditions were 10 mM 4-(2-hydroxyethyl)-1-piperazineethanesulfonic acid [HEPES], 150 mM NaCl, 0.05% Tween 20, pH 7.4 and 4% DMSO. The final protein concentration in the assay was 20 pM with the peptide present at 1 nM). Alpha beads were used at a final concentration of 5 ug/mL. The experiments were incubated for overnight at 23° C. after acceptor bead addition. Finally the donor bead is added and incubated for 2 hours at 23° C. before Alpha signal measured on a Biotek Synergy2 plate reader (Excitation 680 nm, emission 615 nm).

MOLT-4 cells = experiment: MOLT-4 cell viability, MTT assay; assay type: cell-based; conditions: Homo sapiens, MOLT-4, 48 h, 48 h exposure
How it was run: as §1

BCLXL [2] = target: T1, BCLXL; experiment: Fluorescence polarisation assay (PUMA-based probe displacement); assay type: binding; also: 20 nM protein, 10 nM fluorescent probe

SMILES | IC50 (H146 cells) [nM] | IC50 (BCLXL [1]) [nM] | IC50 (MOLT-4 cells) [nM] | Ki (BCLXL [2]) [nM]
CNCC#Cc1ccc(OCCCc2sc(N(CCCC(CO)OC)c3cc(C)c(Nc4nc5ccccc5s4)nn3)nc2C(=O)O)c(F)c1 (stereo not drawn) [Example 112, 2-[[6-(1,3-Benzothiazol-2-ylamino)-5-methyl-pyridazin-3-yl]-(5-hydroxy-4-methoxy-pentyl)amino]-5-[3-[2-fluoro-4-[3-(methylamino)prop-1-ynyl]phenoxy]propyl]thiazole-4-carboxylic acid] | 30.9 | 0.028 | 77.5 | –
Cc1cc(N(C)c2nc(C(=O)O)c(C3CNC3)s2)nnc1Nc1nc2ccccc2s1 [Example 139, 5-(Azetidin-3-yl)-2-({6-[(1,3-benzothiazol-2-yl)amino]-5-methylpyridazin-3-yl}(methyl)amino)-1,3-thiazole-4-carboxylic acid] | – | 270 | – | 640
Cc1cc(N(C)c2nc(C(=O)O)c(C3CN(C(=O)OC(C)(C)C)C3)s2)nnc1Nc1nc2ccccc2s1 [Example 135, 2-({6-[(1,3-Benzothiazol-2-yl)amino]-5-methylpyridazin-3-yl}(methyl)amino)-5-{1-[(tert-butoxy)carbonyl]azetidin-3-yl}-1,3-thiazole-4-carboxylic acid] | 5290 | 3.9 | 3240 | –
Cc1cc(N(CCCCO)c2nc(C(=O)O)c(CCCOc3ccc(C#CCN(C)CCCS(=O)(=O)O)cc3F)s2)nnc1Nc1nc2ccccc2s1 [Example 151, 2-[[6-(1,3-Benzothiazol-2-ylamino)-5-methyl-pyridazin-3-yl]-(4-hydroxybutyl)amino]-5-[3-[2-fluoro-4-[3-[methyl(3-sulfopropyl)amino]prop-1-ynyl]phenoxy]propyl]thiazole-4-carboxylic acid] | – | 0.005 | 194 | < 1
CC(=O)N1CCC(c2sc(N(C)c3cc(C)c(Nc4nc5ccccc5s4)nn3)nc2C(=O)O)CC1 [Example 97, 5-(1-Acetylpiperidin-4-yl)-2-({6-[(1,3-benzothiazol-2-yl)amino]-5-methylpyridazin-3-yl}(methyl)amino)-1,3-thiazole-4-carboxylic acid] | – | 210 | – | 130
Cc1cc(N(C)c2nc(C(=O)O)c(C3CN(Cc4ccccc4)C3)s2)nnc1Nc1nc2ccccc2s1 [Example 145, 2-({6-[(1,3-Benzothiazol-2-yl)amino]-5-methylpyridazin-3-yl}(methyl)amino)-5-(1-benzylazetidin-3-yl)-1,3-thiazole-4-carboxylic acid] | – | 190 | – | 180
CNCC#Cc1ccc(OCCCc2sc(N(CC(CO)N3CCOCC3)c3cc(C)c(Nc4nc5ccccc5s4)nn3)nc2C(=O)O)c(F)c1 (stereo not drawn) [Example 115, 2-[[6-(1,3-Benzothiazol-2-ylamino)-5-methyl-pyridazin-3-yl]-(3-hydroxy-2-morpholino-propyl)amino]-5-[3-[2-fluoro-4-[3-(methylamino)prop-1-ynyl]phenoxy]propyl]thiazole-4-carboxylic acid] | > 150 | 0.089 | > 150 | –
CNCC#Cc1ccc(OCCCc2sc(N(CCCC(O)CN3CCOCC3)c3cc(C)c(Nc4nc5ccccc5s4)nn3)nc2C(=O)O)c(F)c1 (stereo not drawn) [Example 113, 2-[[6-(1,3-Benzothiazol-2-ylamino)-5-methyl-pyridazin-3-yl]-(4-hydroxy-5-morpholino-pentyl)amino]-5-[3-[2-fluoro-4-[3-(methylamino)prop-1-ynyl]phenoxy]propyl]thiazole-4-carboxylic acid] | 13 | 0.028 | 25.7 | –
C/C(=C\c1sc(N(C)c2cc(C)c(Nc3nc4ccccc4s3)nn2)nc1C(=O)O)COc1ccccc1 [Example 162, 2-({6-[(1,3-Benzothiazol-2-yl)amino]-5-methylpyridazin-3-yl}(methyl)amino)-5-[(1E)-2-methyl-3-phenoxyprop-1-en-1-yl]-1,3-thiazole-4-carboxylic acid] | 6590 | 1.9 | 3170 | –
Cc1cc(N(C)c2nc(C(=O)O)c(C3CN(C(=O)Cc4ccccc4)C3)s2)nnc1Nc1nc2ccccc2s1 [Example 138, 2-({6-[(1,3-Benzothiazol-2-yl)amino]-5-methylpyridazin-3-yl}(methyl)amino)-5-[1-(2-phenylacetyl)azetidin-3-yl]-1,3-thiazole-4-carboxylic acid] | – | 11 | – | 29
Cc1ccc(S(=O)(=O)N(C)CC#Cc2ccc(OCCCc3sc(N(CCC(O)CO)c4cc(C)c(Nc5nc6ccccc6s5)nn4)nc3C(=O)O)c(F)c2)cc1 (stereo not drawn) [Example 120, 2-[[6-(1,3-Benzothiazol-2-ylamino)-5-methyl-pyridazin-3-yl]-(3,4-dihydroxybutyl)amino]-5-[3-[2-fluoro-4-[3-[methyl(p-tolylsulfonyl)amino]prop-1-ynyl]phenoxy]propyl]thiazole-4-carboxylic acid] | 280 | 0.099 | 557 | –
Cc1cc(N(CCCC(O)CN(C)CCN(C)C)c2nc(C(=O)O)cs2)nnc1Nc1nc2ccccc2s1 (stereo not drawn) [Example 142, 2-[[6-(1,3-Benzothiazol-2-ylamino)-5-methyl-pyridazin-3-yl]-[5-[2-(dimethylamino)ethyl-methyl-amino]-4-hydroxy-pentyl]amino]thiazole-4-carboxylic acid] | – | 10 | – | 50
Cc1cc(N(C)c2nc(C(=O)O)c(C3CCN(C(=O)Cc4ccccc4)CC3)s2)nnc1Nc1nc2ccccc2s1 [Example 96, 2-({6-[(1,3-Benzothiazol-2-yl)amino]-5-methylpyridazin-3-yl}(methyl)amino)-5-[1-(2-phenylacetyl)piperidin-4-yl]-1,3-thiazole-4-carboxylic acid] | – | 270 | – | 220
Cc1cc(N(C)c2nc(C(=O)O)c(CC(C)(C)COc3ccc(C#CCN(C)C)cc3F)s2)nnc1Nc1nc2ccccc2s1 [Example 137, 2-({6-[(1,3-Benzothiazol-2-yl)amino]-5-methylpyridazin-3-yl}(methyl)amino)-5-(3-{4-[3-(dimethylamino)prop-1-yn-1-yl]-2-fluorophenoxy}-2,2-dimethylpropyl)-1,3-thiazole-4-carboxylic acid] | 320 | 0.27 | 61.4 | –
Cc1cc(N(CCCC(O)CN2CCOCC2)c2nc(C(=O)O)cs2)nnc1Nc1nc2ccccc2s1 (stereo not drawn) [Example 131, 2-[[6-(1,3-Benzothiazol-2-ylamino)-5-methyl-pyridazin-3-yl]-(4-hydroxy-5-morpholino-pentyl)amino]thiazole-4-carboxylic acid] | – | 2.7 | – | –
Cc1cc(N(C)c2nc(C(=O)O)c(C3CN(c4ccccc4)C3)s2)nnc1Nc1nc2ccccc2s1 [Example 153, 2-({6-[(1,3-Benzothiazol-2-yl)amino]-5-methylpyridazin-3-yl}(methyl)amino)-5-(1-phenylazetidin-3-yl)-1,3-thiazole-4-carboxylic acid] | – | 80 | – | –
COc1ccc(CN(C)CC#Cc2ccc(OCCCc3sc(N(CCC(O)CO)c4cc(C)c(Nc5nc6ccccc6s5)nn4)nc3C(=O)O)c(F)c2)cc1 (stereo not drawn) [Example 121, 2-[[6-(1,3-Benzothiazol-2-ylamino)-5-methyl-pyridazin-3-yl]-(3,4-dihydroxybutyl)amino]-5-[3-[2-fluoro-4-[3-[(4-methoxyphenyl)methyl-methyl-amino]prop-1-ynyl]phenoxy]propyl]thiazole-4-carboxylic acid] | – | 0.058 | – | –
